# Measurements from article PMC11995724, “Antibiotic target discovery by integrated phenotypic and activity-based profiling of electrophilic fragments” (Cell chemical biology, 2025).
# Assay: in vitro
# Details: human, hek293t cells
row,SMILES,"viability at 48 h, 25 µM"
1,"CC(Cl)C(=O)NC1COc2ccc(F)cc21 (stereo not drawn) [7-A17, 2-chloro-N-(5-fluoro-2,3-dihydro-1-benzofuran-3-yl)propanamide]",74%
2,"C=CC(=O)Nc1cnn(C2CCCC2)c1 [3-O21, N-(1-cyclopentyl-1H-pyrazol-4-yl)prop-2-enamide]",70.5%
3,"CCc1ccc(NC(=O)C(C#N)=Cc2ccn(-c3ccccc3)n2)cc1 [8-K22, 2-cyano-N-(4-ethylphenyl)-3-(1-phenyl-1H-pyrazol-3-yl)prop-2-enamide]",36.8%
4,"C=CC(=O)N1CCC(C(=O)N[C@H]2CCCCCC[C@H]2C(=O)OC)CC1 (racemic) [2-H06, rac-methyl (1R,2S)-2-[1-(prop-2-enoyl)piperidine-4-amido]cyclooctane-1-carboxylate]",94.4%
5,"CC(Cl)C(=O)N(C)C1CCS(=O)(=O)CC1 (stereo not drawn) [6-J21, 2-chloro-N-(1,1-dioxo-1lambda6-thian-4-yl)-N-methylpropanamide]",99.1%
6,"O=C(CCl)NCc1cn[nH]c1C(F)F [7-D05, 2-chloro-N-{[5-(difluoromethyl)-1H-pyrazol-4-yl]methyl}acetamide]",0.404%
7,"Cc1ccc(C)n1C1CCC(NC(=O)CCl)CC1 (stereo not drawn) [7-F18, 2-chloro-N-[4-(2,5-dimethyl-1H-pyrrol-1-yl)cyclohexyl]acetamide]",106%
8,"Cc1ccc(NC(=O)N2CCN(C(=O)C=CCN(C)C)CC2)cc1 [10-H16, 4-[4-(dimethylamino)but-2-enoyl]-N-(4-methylphenyl)piperazine-1-carboxamide]",94.2%
9,"O=C(CCl)N1N=C(c2cccs2)CC1c1cccc(O)c1 (stereo not drawn) [6-L04, 2-chloro-1-[5-(3-hydroxyphenyl)-3-(thiophen-2-yl)-4,5-dihydro-1H-pyrazol-1-yl]ethan-1-one]",0.561%
10,"N#CC(=Cc1ccc(Oc2cnccn2)cc1)C(=O)NC1CCCC1 [9-F20, 2-cyano-N-cyclopentyl-3-[4-(pyrazin-2-yloxy)phenyl]prop-2-enamide]",95.3%
11,"O=C(CCl)N(Cc1ccco1)C12CC3CC(CC(C3)C1)C2 [4-J18, N-(adamantan-1-yl)-2-chloro-N-[(furan-2-yl)methyl]acetamide]",1.5%
12,"N#CC(C(=O)CCl)=C(c1ccc(F)cc1)N1CCOCC1 [10-C20, 4-chloro-2-[(4-fluorophenyl)(morpholin-4-yl)methylidene]-3-oxobutanenitrile]",53.6%
13,"C=CC(=O)N1CC(OCc2ccccc2F)C1 [3-I15, 1-{3-[(2-fluorophenyl)methoxy]azetidin-1-yl}prop-2-en-1-one]",40.4%
14,"N#CC(=Cc1c2ccccc2cc2ccccc12)C(=O)NC1CCCCC1 [8-D14, 3-(anthracen-9-yl)-2-cyano-N-cyclohexylprop-2-enamide]",94.6%
15,"COc1ccc(C2=NN(C(=O)CCl)C(c3cccc(F)c3)C2)cc1 (stereo not drawn) [6-P04, 2-chloro-1-[5-(3-fluorophenyl)-3-(4-methoxyphenyl)-4,5-dihydro-1H-pyrazol-1-yl]ethan-1-one]",0.182%
16,"O=C(CCl)NC(Cc1ccccc1)c1ccccc1 (stereo not drawn) [4-L11, 2-chloro-N-(1,2-diphenylethyl)acetamide]",0.317%
17,"C=CC(=O)N1CCC(CCO)c2ccccc21 (stereo not drawn) [3-O03, 1-[4-(2-hydroxyethyl)-1,2,3,4-tetrahydroquinolin-1-yl]prop-2-en-1-one]",58.4%
18,"COc1ccc(C=C(C#N)C(=O)Nc2ccccc2C(=O)O)cc1O [9-A18, 2-[2-cyano-3-(3-hydroxy-4-methoxyphenyl)prop-2-enamido]benzoic acid]",104%
19,"CCC(C)n1nccc1NC(=O)C(C)Cl (stereo not drawn) [6-A20, N-[1-(butan-2-yl)-1H-pyrazol-5-yl]-2-chloropropanamide]",84.8%
20,"Cc1nnnn1CCNC(=O)C(C)Cl (stereo not drawn) [7-A19, 2-chloro-N-[2-(5-methyl-1H-1,2,3,4-tetrazol-1-yl)ethyl]propanamide]",79%
21,"Cc1ccc(C2=NN(C(=O)CCl)C(c3cccs3)C2)o1 (stereo not drawn) [5-I17, 2-chloro-1-[3-(5-methylfuran-2-yl)-5-(thiophen-2-yl)-4,5-dihydro-1H-pyrazol-1-yl]ethan-1-one]",0.348%
22,"O=C(CCl)NCC1(c2ccc(F)cc2)CCCC1 [6-E18, 2-chloro-N-{[1-(4-fluorophenyl)cyclopentyl]methyl}acetamide]",5.22%
23,"C=CC(=O)N1CCC(C(=O)N2CCN(CC(C)C)C(=O)C2C)CC1 (stereo not drawn) [2-B08, 3-methyl-1-(2-methylpropyl)-4-[1-(prop-2-enoyl)piperidine-4-carbonyl]piperazin-2-one]",83.8%
24,"Cc1c(C=C(C#N)C(=O)Nc2ccccc2F)cc(C#N)n1C [8-A13, 2-cyano-3-(5-cyano-1,2-dimethyl-1H-pyrrol-3-yl)-N-(2-fluorophenyl)prop-2-enamide]",83.9%
25,"Cc1ccccc1NC(=O)C(C#N)=Cc1ccsc1 [8-K15, 2-cyano-N-(2-methylphenyl)-3-(thiophen-3-yl)prop-2-enamide]",77.5%
26,"C=CC(=O)Nc1ccc(C(=O)N2CCCCC2CS(C)(=O)=O)cc1 (stereo not drawn) [2-N18, N-{4-[2-(methanesulfonylmethyl)piperidine-1-carbonyl]phenyl}prop-2-enamide]",102%

row,SMILES,"viability at 48 h, 25 µM"
1,"C=CC(=O)NCC1(c2nc(-c3ccccc3)cs2)CCOCC1 [2-A11, N-{[4-(4-phenyl-1,3-thiazol-2-yl)oxan-4-yl]methyl}prop-2-enamide]",93.1%
2,"C=CC(=O)N(Cc1c(F)cc(C)cc1Cl)C1CCCOCC1 (stereo not drawn) [2-A13, N-[(2-chloro-6-fluoro-4-methylphenyl)methyl]-N-(oxepan-4-yl)prop-2-enamide]",99%
3,"C=CC(=O)NCCc1ccn(-c2ccc(F)cc2)n1 [2-P03, N-{2-[1-(4-fluorophenyl)-1H-pyrazol-3-yl]ethyl}prop-2-enamide]",70.4%
4,"O=C(CCl)Nc1nc2ccc([N+](=O)[O-])cc2s1 [4-H08, 2-chloro-N-(6-nitro-1,3-benzothiazol-2-yl)acetamide]",0.244%
5,"C=CC(=O)NCc1ccc(C(=O)N2CCCC2)cc1 [3-O05, N-{[4-(pyrrolidine-1-carbonyl)phenyl]methyl}prop-2-enamide]",71.6%
6,"Cc1nc2ccccc2n(CCCN(C)C(=O)CCl)c1=O [6-D04, 2-chloro-N-methyl-N-[3-(3-methyl-2-oxo-1,2-dihydroquinoxalin-1-yl)propyl]acetamide]",1.73%
7,"N#CC(=Cc1ccc(Cl)cc1Cl)C(=O)Nc1ccncc1 [8-M22, 2-cyano-3-(2,4-dichlorophenyl)-N-(pyridin-4-yl)prop-2-enamide]",67%
8,"CC(Cl)C(=O)N1CC=C(C(F)(F)F)CC1 (stereo not drawn) [5-J19, 2-chloro-1-[4-(trifluoromethyl)-1,2,3,6-tetrahydropyridin-1-yl]propan-1-one]",118%
9,"COc1cc(C=C(C#N)C(=O)NC2CC2)ccc1O [9-G12, 2-cyano-N-cyclopropyl-3-(4-hydroxy-3-methoxyphenyl)prop-2-enamide]",110%
10,"Cc1ccc(C=C(C#N)C(=O)NC2CCCC2)cc1C [8-E12, 2-cyano-N-cyclopentyl-3-(3,4-dimethylphenyl)prop-2-enamide]",54.9%
11,"N#CC(=Cc1cccc(O)c1)C(=O)Nc1ccccc1C(=O)O [9-O16, 2-[2-cyano-3-(3-hydroxyphenyl)prop-2-enamido]benzoic acid]",125%
12,"N#CC(=Cc1cnn(Cc2ccccc2)c1)C(=O)NC1CCCC1 [9-O14, 3-(1-benzyl-1H-pyrazol-4-yl)-2-cyano-N-cyclopentylprop-2-enamide]",80.2%
13,"Cc1ccc(C=C(C#N)C(=O)Nc2ccc(C(=O)O)cc2)s1 [8-E04, 4-[2-cyano-3-(5-methylthiophen-2-yl)prop-2-enamido]benzoic acid]",91.5%
14,"COc1ccc(NC(=O)CCl)c([N+](=O)[O-])c1 [4-I21, 2-chloro-N-(4-methoxy-2-nitrophenyl)acetamide]",35.6%
15,"CCC(c1cc(Cl)cc(Cl)c1)N(C)C(=O)CCl (stereo not drawn) [7-L10, 2-chloro-N-[1-(3,5-dichlorophenyl)propyl]-N-methylacetamide]",0.495%
16,"CC1CN(C(=O)C(C#N)=Cc2c(Cl)cccc2Cl)CC(C)O1 (stereo not drawn) [8-O12, 3-(2,6-dichlorophenyl)-2-(2,6-dimethylmorpholine-4-carbonyl)prop-2-enenitrile]",60.2%
17,"C=CC(=O)N1CCC(C(=O)NCc2ccccc2-n2cccn2)CC1 [3-N03, 1-(prop-2-enoyl)-N-{[2-(1H-pyrazol-1-yl)phenyl]methyl}piperidine-4-carboxamide]",68%
18,"C=CC(=O)N1CCS(=O)(=O)N2CCCC12 (stereo not drawn) [3-H18, 1-(prop-2-enoyl)-hexahydro-1H-4lambda6-pyrrolo[1,2-b][1,2,4]thiadiazine-4,4-dione]",93.3%
19,"C=CC(=O)N(C)Cc1cc2sccc2n1C [2-B19, N-methyl-N-({4-methyl-4H-thieno[3,2-b]pyrrol-5-yl}methyl)prop-2-enamide]",75.1%
20,"O=C(CCl)NC1C=C(c2ccc(Cl)cc2)CCC1 (stereo not drawn) [7-P08, 2-chloro-N-[3-(4-chlorophenyl)cyclohex-2-en-1-yl]acetamide]",0.393%
21,"CCc1ccccc1NC(=O)CN(C)C(=O)C(C)Cl (stereo not drawn) [4-P05, 2-chloro-N-{[(2-ethylphenyl)carbamoyl]methyl}-N-methylpropanamide]",81%
22,"C=CC(=O)NC(C)c1nnnn1-c1ccccc1 (stereo not drawn) [2-I11, N-[1-(1-phenyl-1H-1,2,3,4-tetrazol-5-yl)ethyl]prop-2-enamide]",196%
23,"C=CC(=O)Nc1ccc2c(c1)OCCCO2 [1-G20, N-(3,4-dihydro-2H-1,5-benzodioxepin-7-yl)prop-2-enamide]",115%
24,"N#CC(=Cc1ccco1)C(=O)Nc1cc2c(cc1Cl)NC(=O)CO2 [9-D20, N-(6-chloro-3-oxo-3,4-dihydro-2H-1,4-benzoxazin-7-yl)-2-cyano-3-(furan-2-yl)prop-2-enamide]",87%
25,"N#CC(=Cc1ccc(-c2ccccc2Cl)o1)C(=O)N1CCCCC1 [8-F20, 3-[5-(2-chlorophenyl)furan-2-yl]-2-(piperidine-1-carbonyl)prop-2-enenitrile]",66.6%
